In ChEMBL document CHEMBL4251600, “Bioactive products from singlet oxygen photooxygenation of cannabinoids” (Eur J Med Chem, 2018):
≈ marks a conversion by molar mass, not a printed value.

Legend:
SK-MEL = assay: Anticancer activity against human SK-MEL cells assessed as cell growth inhibition incubated for 48 hrs by neutral red dye based assay; type: functional
LLC-PK1 = assay: Cytotoxicity against pig LLC-PK1 cells assessed as cell growth inhibition incubated for 48 hrs by neutral red dye based assay; parameters: species or system Sus scrofa; details: llc-pk1
Staphylococcus aureus [1] = assay: Antimicrobial activity against methicillin-resistant Staphylococcus aureus by modified CLSI based method; type: functional, organism-based
Staphylococcus aureus [2] = assay: Antimicrobial activity against Staphylococcus aureus by modified CLSI based method; type: functional, organism-based
Cryptococcus neoformans = assay: Antifungal activity against Cryptococcus neoformans by alamar blue assay; type: functional, organism-based; details: Cryptococcus neoformans
Pichia kudriavzevii = assay: Antifungal activity against Candida krusei by modified CLSI based method; type: functional, organism-based; details: Pichia kudriavzevii; read-out: IC50
Nakaseomyces glabratus = assay: Antifungal activity against Candida glabrata by modified CLSI based method; type: functional, organism-based
Plasmodium falciparum [3] = assay: Antiplasmodial activity against chloroquine-sensitive Plasmodium falciparum D6 infected in red blood cells incubated for 72 hrs by parasite LDH release based colorimetric assay; type: functional, organism-based; details: D6, 72 h
Plasmodium falciparum [4] = assay: Antiplasmodial activity against chloroquine-resistant Plasmodium falciparum W2 infected in red blood cells incubated for 72 hrs by parasite LDH release based colorimetric assay; type: functional, organism-based; details: W2, 72 h
Leishmania donovani = assay: Antileishmanial activity against Leishmania donovani promastigotes incubated for 48 hrs by alamar blue assay; type: functional, organism-based; details: Leishmania donovani, 48 h
KB = assay: Anticancer activity against human KB cells assessed as cell growth inhibition up to 10 ug/ml incubated for 48 hrs by neutral red dye based assay; type: functional
BT-549 = assay: Anticancer activity against human BT549 cells assessed as cell growth inhibition up to 10 ug/ml incubated for 48 hrs by neutral red dye based assay; type: functional
SK-OV-3 = assay: Anticancer activity against human SKOV3 cells assessed as cell growth inhibition up to 10 ug/ml incubated for 48 hrs by neutral red dye based assay; type: functional

C=C1C[C@H]2C3=C(OC(C)(C)[C@@H]2CC1OO)C(=O)C(CCCCC)=CC3=O (stereo in doubt; 25)
IC50 (SK-MEL): 8.65 µg/mL (≈ 24 µM) | IC50 (LLC-PK1): 9.9 µg/mL (≈ 27.5 µM) | IC50 (Staphylococcus aureus [1]): 5.78 µg/mL (≈ 16 µM) | MIC (Staphylococcus aureus [1]; Staphylococcus aureus): 10 µg/mL (≈ 27.7 µM) | IC50 (Staphylococcus aureus [2]): 0.91 µg/mL (≈ 2.52 µM) | MIC (Staphylococcus aureus [2]; Staphylococcus aureus, read-out: MIC): 2.5 µg/mL (≈ 6.94 µM) | IC50 (Cryptococcus neoformans; read-out: IC50): 1.4 µg/mL (≈ 3.88 µM) | MIC (Cryptococcus neoformans; read-out: MIC): 2.5 µg/mL (≈ 6.94 µM) | IC50 (Pichia kudriavzevii): 17 µg/mL (≈ 47.2 µM) | IC50 (Nakaseomyces glabratus): Not Active | IC50 (Plasmodium falciparum [3]): 1 µg/mL (≈ 2.77 µM) | IC50 (Plasmodium falciparum [4]): 0.9 µg/mL (≈ 2.5 µM) | IC50 (Leishmania donovani; read-out: IC50): 2.1 µg/mL (≈ 5.83 µM) | IC90 (Leishmania donovani; read-out: IC90): 11 µg/mL (≈ 30.5 µM) | IC50 (KB): Not Active | IC50 (BT-549): Not Active | IC50 (SK-OV-3): Not Active
